Reference: US10653717B2, “Antibiotic compositions” (priority 2016, dated 2020)
Entries after “also recorded” stand apart in the source; their conditions may differ. Where two headings read alike, the source gives them in different places.

How the values were obtained:
[1] = test system: E. coli DHB4; test: E. coli DHB4 growth in micro-well plates, OD600 nm, 16 h; format: cell-based, Escherichia coli
Method: The effect of silver nitrate with ebselen in combination on the growth of Gram-negative model bacteria, E. coli, was investigated in the microplates. DHB4 overnight cultures were diluted 1:1000 times in Luria-Bertani (LB) medium, and treated with ionic silver (Ag^+) as a nitrate salt (AgNO3) for 16 h.
E. coli DHB4 cells overnight cultures were diluted 1:1000 times in Luria-Bertani (LB) medium and treated with serial concentrations of AgNO3 and/or ebselen for 16 h. The cell viability was determined by measuring the absorbance at 600 nm. The culture treated with 0.8% (v/v) DMSO was used as a control.
E. coli DHB4 cells were grown until an OD600 nm of 0.4, and treated with serial dilutions of ebselen (0, 2, 4, 8 μM) for 16 h. The cell viability was determined by measuring the absorbance at 600 nm. The culture treated with 0.8% (v/v) DMSO was used as a control.

[2] = test system: E. coli DHB4 grxA^−trxA^−; test: microbe, parasite or virus in culture; format: cell-based, Escherichia coli; conditions: 24 h; for MIC: Escherichia coli, read-out: MIC of ebselen in the presence of silver
Method: (§1) Since Trx and GSH/Grx are major thiol-dependent systems, investigated were the effects of Ag^+ with ebselen in combination on Trx or GSH system-deficient E. coli redox mutants.
(§2) Serial dilutions of ebselen and AgNO3 were added to the individual wells. The minimum inhibitory concentration (MIC) was determined after 24 h culture at 37° C.

[3] = test system: E. coli DHB4 gor^−; test: microbe, parasite or virus in culture; format: cell-based, Escherichia coli; conditions: 24 h; for MIC: Escherichia coli, read-out: MIC of ebselen in the presence of silver
Method: as §1, §2

[4] = test system: E. coli DHB4 trxA^−; test: microbe, parasite or virus in culture; format: cell-based, Escherichia coli; conditions: 24 h; for MIC: Escherichia coli, read-out: MIC of ebselen in the presence of silver
Method: as §1, §2

[5] = test system: E. coli DHB4 trxC^−; test: microbe, parasite or virus in culture; format: cell-based, Escherichia coli; conditions: for MIC: read-out: MIC of ebselen in the presence of silver
Method: as §1, §2

[6] = test system: E. coli DHB4 trxA^−gshA^−; test: microbe, parasite or virus in culture; format: cell-based, Escherichia coli; conditions: for MIC: read-out: MIC of ebselen in the presence of silver
Method: as §1, §2

[7] = test system: E. coli DHB4 gshA^−; test: microbe, parasite or virus in culture; format: cell-based, Escherichia coli; conditions: for MIC: read-out: MIC of ebselen in the presence of silver
Method: as §1, §2

[8] = test system: E. coli DHB4 trxA^−B^−C^−; test: microbe, parasite or virus in culture; format: cell-based, Escherichia coli; conditions: 24 h; for MIC: Escherichia coli, read-out: MIC of ebselen in the presence of silver
Method: as §1, §2

[9] = test system: E. coli DHB4 gor^−grxA^−B^−C^−; test: microbe, parasite or virus in culture; format: cell-based, Escherichia coli; conditions: 24 h; for MIC: Escherichia coli, read-out: MIC of ebselen in the presence of silver
Method: as §1, §2

[10] = test system: E. coli DHB4 trxB^−; test: microbe, parasite or virus in culture; format: cell-based, Escherichia coli; conditions: 24 h; for MIC: Escherichia coli, read-out: MIC of ebselen in the presence of silver
Method: as §1, §2

[11] = target: E. coli TrxR (Escherichia coli, UniProt P0A9P4); format: cell-based; design: endogenous in cells; host or cells: E. coli DHB4; conditions: Ag^+ or ebselen alone
Sequence of E. coli TrxR (P0A9P4 whole entry): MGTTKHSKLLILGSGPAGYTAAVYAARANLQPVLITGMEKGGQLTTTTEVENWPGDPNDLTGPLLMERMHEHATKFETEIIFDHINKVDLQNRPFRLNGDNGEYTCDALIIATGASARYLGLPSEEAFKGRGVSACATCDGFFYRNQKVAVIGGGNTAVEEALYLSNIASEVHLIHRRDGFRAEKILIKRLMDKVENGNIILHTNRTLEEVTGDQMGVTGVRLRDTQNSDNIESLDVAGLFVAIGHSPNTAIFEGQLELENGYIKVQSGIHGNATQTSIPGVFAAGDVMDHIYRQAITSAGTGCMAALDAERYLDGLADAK
Method: E. coli DHB4 cells were grown till the absorbance at OD600 nm, of 0.4 in LB medium, and the bacterial cells were treated with different dilutions of ebselen and AgNO3 for 10 min. Cells were harvested by centrifugation at 6,000 rpm for 5 min and thoroughly washed 3 times with PBS, then cells were re-suspended in lysis buffer (25 mM Tris.HCl, pH 7.5, 100 mM NaCl, 2.5 mM EDTA, 2.5 mM EGTA, 20 mM NaF, 1 mM Na3VO4, 20 mM sodium ß-glycerophosphate, 10 mM sodium pyrophosphate, 0.5% Triton X-100) containing protease inhibitor cocktail and lysed by sonication. The cell lysates were obtained by centrifugation at 13,000 rpm for 20 min and the protein concentration was measured by Lowry protein assay (Bio-Rad DC™).
E. coli DHB4 TrxR activity in cell extracts was measured by a DTNB reduction activity assay.
E. coli DHB4 cells were grown till the absorbance at OD600 nm of 0.4 in LB medium, and the bacterial cells were treated with 80 μM antibiotics and 5 μM AgNO3 for 10 and 60 min, respectively. The cultures treated with 80 μM ebselen and 5 μM AgNO3 were used as the positive control. […] The cell lysates were obtained by centrifugation at 13,000 rpm for 20 min and the protein concentrations were measured by the Lowry protein assay.
E. coli DHB4 TrxR activity in cell extracts was measured by a DTNB reduction activity assay^23.

[12] = test system: E. coli DHB4 oxyR^−; test: microbe, parasite or virus in culture; format: cell-based, Escherichia coli; conditions: for MIC: read-out: MIC of ebselen in the presence of silver
Method: as §1
One major function of GSH and Trx systems is to scavenge ROS to keep cellular redox balance and protect against oxidative stress. The inhibition of the Trx system and depletion of GSH may responsible for the elevation of ROS.
as §2

O=[N+]([O-])[O-].[Ag+] [silver, silver nitrate]
minimal inhibition concentration (MIC) of Ag^+ ([1]; Ag^+ alone, 16 h treatment): 42 µM
MIC of Ag^+ ([1]; with 2 μM ebselen, 16 h treatment): 4.2 µM
MIC of silver in the presence of ebselen ([2]; Ebselen 0 μM): 20 µM
MIC of silver in the presence of ebselen ([2]; Ebselen 1 μM): 10 µM
MIC of silver in the presence of ebselen ([2]; Ebselen 2 μM): 2.5 µM
MIC of silver in the presence of ebselen ([2]; Ebselen 4 μM): 0.625 µM
MIC of silver in the presence of ebselen ([3]; Ebselen 0 μM): 40 µM
MIC of silver in the presence of ebselen ([3]; Ebselen 1 μM): 10 µM
MIC of silver in the presence of ebselen ([3]; Ebselen 2 μM): 5 µM
MIC of silver in the presence of ebselen ([3]; Ebselen 4 μM): 1.25 µM
MIC of silver in the presence of ebselen ([4]; Ebselen 0 μM): 40 µM
MIC of silver in the presence of ebselen ([4]; Ebselen 1 μM): 10 µM
MIC of silver in the presence of ebselen ([4]; Ebselen 2 μM): 2.5 µM
MIC of silver in the presence of ebselen ([4]; Ebselen 4 μM): 1.25 µM
MIC of silver in the presence of ebselen ([5]; Ebselen 0 μM, trxC^−, 24 h): 40 µM
MIC of silver in the presence of ebselen ([5]; Ebselen 1 μM, trxC^−, 24 h): 10 µM
MIC of silver in the presence of ebselen ([5]; Ebselen 2 μM, trxC^−, 24 h): 5 µM
MIC of silver in the presence of ebselen ([5]; Ebselen 4 μM, trxC^−, 24 h): 1.25 µM
MIC of silver in the presence of ebselen ([6]; Ebselen 0 μM, trxA^−gshA^−, 24 h): 20 µM
MIC of silver in the presence of ebselen ([6]; Ebselen 1 μM, trxA^−gshA^−, 24 h): 5 µM
MIC of silver in the presence of ebselen ([6]; Ebselen 2 μM, trxA^−gshA^−, 24 h): 2.5 µM
MIC of silver in the presence of ebselen ([6]; Ebselen 4 μM, trxA^−gshA^−, 24 h): 0.625 µM
MIC of silver in the presence of ebselen ([7]; Ebselen 0 μM, gshA^−, 24 h): 20 µM
MIC of silver in the presence of ebselen ([7]; Ebselen 1 μM, gshA^−, 24 h): 5 µM
MIC of silver in the presence of ebselen ([7]; Ebselen 2 μM, gshA^−, 24 h): 2.5 µM
MIC of silver in the presence of ebselen ([7]; Ebselen 4 μM, gshA^−, 24 h): 0.625 µM
MIC of silver in the presence of ebselen ([8]; Ebselen 0 μM): 40 µM
MIC of silver in the presence of ebselen ([8]; Ebselen 1 μM): 10 µM
MIC of silver in the presence of ebselen ([8]; Ebselen 2 μM): 2.5 µM
MIC of silver in the presence of ebselen ([8]; Ebselen 4 μM): 1.25 µM
MIC of silver in the presence of ebselen ([9]; Ebselen 0 μM): 20 µM
MIC of silver in the presence of ebselen ([9]; Ebselen 1 μM): 10 µM
MIC of silver in the presence of ebselen ([9]; Ebselen 2 μM): 2.5 µM
MIC of silver in the presence of ebselen ([9]; Ebselen 4 μM): 0.625 µM
MIC of silver in the presence of ebselen ([10]; Ebselen 0 μM): 40 µM
MIC of silver in the presence of ebselen ([10]; Ebselen 1 μM): 10 µM
MIC of silver in the presence of ebselen ([10]; Ebselen 2 μM): 2.5 µM
MIC of silver in the presence of ebselen ([10]; Ebselen 4 μM): 0.625 µM
TrxR activities in cell extracts [11]: not influenced
MIC of silver in the presence of ebselen ([12]; Ebselen 0 μM, oxyR^−, 24 h): 20 µM
MIC of silver in the presence of ebselen ([12]; Ebselen 1 μM, oxyR^−, 24 h): 5 µM
MIC of silver in the presence of ebselen ([12]; Ebselen 2 μM, oxyR^−, 24 h): 1.25 µM
MIC of silver in the presence of ebselen ([12]; Ebselen 4 μM, oxyR^−, 24 h): 0.625 µM

O=c1c2ccccc2[se]n1-c1ccccc1 [ebselen, 2-phenyl-1,2-benzisoselenazol-3(2H)-one]
effect on E. coli growth ([1]; ebselen alone (2, 4, 8 μM), 16 h): no effects on bacterial growth; also recorded: no effect on the growth of E. coli
MIC ([2]; Silver 0 μM): 40 µM
MIC ([2]; Silver 5 μM): 1 µM
MIC ([2]; Silver 10 μM): 0.5 µM
MIC ([3]; Silver 0 μM): 80 µM
MIC ([3]; Silver 5 μM): 1 µM
MIC ([3]; Silver 10 μM): 1 µM
MIC ([3]; Silver 20 μM): 0.5 µM
MIC ([4]; Silver 0 μM): 80 µM
MIC ([4]; Silver 5 μM): 1 µM
MIC ([4]; Silver 10 μM): 1 µM
MIC ([4]; Silver 20 μM): 0.5 µM
MIC ([5]; Escherichia coli, 24 h, Silver 0 μM, trxC^−, 24 h): 80 µM
MIC ([5]; Escherichia coli, 24 h, Silver 5 μM, trxC^−, 24 h): 2 µM
MIC ([5]; Escherichia coli, 24 h, Silver 10 μM, trxC^−, 24 h): 1 µM
MIC ([5]; Escherichia coli, 24 h, Silver 20 μM, trxC^−, 24 h): 0.5 µM
MIC ([5]; Escherichia coli, 24 h): 8 µM
MIC [5]: 4 µM
MIC ([6]; Escherichia coli, 24 h, Silver 0 μM, trxA^−gshA^−, 24 h): 40 µM
MIC ([6]; Escherichia coli, 24 h, Silver 5 μM, trxA^−gshA^−, 24 h): 1 µM
MIC ([6]; Escherichia coli, 24 h, Silver 10 μM, trxA^−gshA^−, 24 h): 0.5 µM
MIC ([6]; Escherichia coli, 24 h): 4 µM
MIC [6]: 2 µM
MIC ([7]; Escherichia coli, 24 h, Silver 0 μM, gshA^−, 24 h): 40 µM
MIC ([7]; Escherichia coli, 24 h, Silver 5 μM, gshA^−, 24 h): 1 µM
MIC ([7]; Escherichia coli, 24 h, Silver 10 μM, gshA^−, 24 h): 0.5 µM
MIC ([7]; Escherichia coli, 24 h): 4 µM
MIC [7]: 2 µM
MIC ([8]; Silver 0 μM): 80 µM
MIC ([8]; Silver 5 μM): 1 µM
MIC ([8]; Silver 10 μM): 0.5 µM
MIC ([8]; Silver 20 μM): 0.5 µM
MIC ([9]; Silver 0 μM): 40 µM
MIC ([9]; Silver 5 μM): 1 µM
MIC ([9]; Silver 10 μM): 0.5 µM
MIC ([10]; Silver 0 μM): 80 µM
MIC ([10]; Silver 5 μM): 1 µM
MIC ([10]; Silver 10 μM): 0.5 µM
MIC ([10]; Silver 20 μM): 0.5 µM
TrxR activities in cell extracts [11]: not influenced
MIC ([12]; Escherichia coli, 24 h, Silver 0 μM, oxyR^−, 24 h): 40 µM
MIC ([12]; Escherichia coli, 24 h, Silver 5 μM, oxyR^−, 24 h): 1 µM
MIC ([12]; Escherichia coli, 24 h, Silver 10 μM, oxyR^−, 24 h): 0.5 µM
MIC ([12]; Escherichia coli, 24 h): 4 µM
MIC [12]: 2 µM
